The text below walks through data of PubChem BioAssay AID1919016 (Molecular Pharmacology Branch, DTP, NCI, 2023).

As a reminder, the viability, T/C is the result in the treated group divided by that in the control group, in per cent. For orientation: IC50 means the concentration at which inhibition is half-maximal.

This assay concerns NCI-H196 complex spheroid growth, percent test/control. The experiment in a line: Anticancer human tumor NCI-H196 cell line growth inhibition [AhR].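 As to all read-outs here: seven days of drug exposure starting three days after plating.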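 As to viability, T/C: 100% = DMSO vehicle control wells.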 The conditions noted are these: for viability, T/C: stronger effect = lower value; for IC50: curve of compound. An excerpt: Multicellular complex tumor spheroid response to aryl hydrocarbon receptor antagonists in combination with a variety of drugs and investigational agents in selected tumor cell lines
The current study was undertaken to assess response to aryl hydrocarbon receptor antagonists in combination with standard-of-care drugs and investigational agents in solid tumor complex spheroid models. Complex spheroids include a stromal component modeled by human endothelial cells (HUVEC) and fibroblasts modeled by human mesenchymal stem cells (MSCs). The concentration ranges selected for each drug and investigational agent were based upon clinically achievable concentrations if the clinical Cmax of the agent was known.
Compounds. The drugs and investigational agents: BAY 2416964 (NSC825713), GNF351 (NSC835774), CH-223191 (NSC835775), CPI-455 (NSC825282), aza-TdCyd (NSC777586), decitabine (NSC127716), belinostat (NSC758774), entinostat (NSC756642), pevonedistat (NSC761192), tazemetostat (NSC777109), talazoparib (NSC765396), olaparib (NSC753686), selinexor (NSC780203), nedisertib (M3814, NSC802822), bortezomib (NSC756655), venetoclax (NSC766270), doxorubicin (NSC123127), elimusertib (BAY189344, NSC800525), ceralasertib (AZD6738, NSC777638), TAK-243 (NSC785004), alisertib (NSC759677), etoposide (NSC141540), topotecan (NSC609699), eribulin (NSC707389), gemcitabine (NSC613327), carboplatin (NSC241240), cisplatin (NSC119875), and SN-38 (NSC673596) were obtained from the National Cancer Institute (NCI) Developmental Therapeutics Program Chemical Repository (32). The FDA-approved anticancer drug set is available from the Developmental Therapeutics Program at https://dtp.cancer.gov/organization/dscb/obtaining/available plates.htm. […] The stock solutions were prepared in dimethyl sulfoxide (DMSO, Sigma-Aldrich, St. Louis, MO, cat. D2650), except for the platinum compounds which were prepared in saline (Quality Biological, Gaithersburg, MD, cat. 114-055-101), at 800-fold the tested concentration and stored at -70 degrees C prior to their use. All drugs and investigational agents were tested over a range starting from a high concentration at or near the clinical Cmax and decreasing in half-log increments. If the clinical Cmax for an agent had not been determined, the highest concentration tested was 10 microM (Table 1).
Cell Culture. All cells were maintained in an incubator at 37 degrees C and 5% CO2 with 95% humidity. The PDC lines were cultured according to standard operating procedures established by the NCI PDMR (https://pdmr.cancer.gov). Briefly, all PDCs were thawed and cultured in Matrigel-coated flasks prepared with a working solution of 1X Ham's F-12 nutrient mix, without supplementation (Invitrogen, Waltham, MA, cat. 11765054), 100 U/mL penicillin-streptomycin (Invitrogen, cat. 15140122), and 2.5% Matrigel (Corning Inc., Corning, NY, cat. 354248) for the first three passages. All PDCs were cultured in complete DMEM/F-12 media containing advanced DMEM/F-12 (Invitrogen, cat. 12634028), 4.9% defined fetal bovine serum, heat inactivated (HyClone Laboratories Inc., Logan, UT, cat. SH30070.03HI), 389 ng/mL hydrocortisone (Sigma-Aldrich, cat. H4001), 9.7 ng/mL human EGF recombinant protein (Invitrogen, cat. PHG0313), 23.4 microg/mL adenine (Sigma-Aldrich, cat. A2786), 97.3 U/mL penicillin-streptomycin (Invitrogen, cat. 15140122), 1.9 mM L-glutamine (Invitrogen, cat. 25030081), and 9.7 microM Y-27632 dihydrochloride (Tocris Bioscience, Bristol, United Kingdom, cat. 1254). The PDCs were cultured in complete DMEM/F12 media without 10 microM Y-27632 dihydrochloride for at least two passages prior to the screen. The established cell lines NCI-H1341 and […] were cultured in DMEM/F-12, HEPES (Invitrogen, cat. 11330032), 5% defined fetal bovine serum (HyClone Laboratories Inc., cat. SH30070.03), ITS premix universal culture supplement [insulin (5 microg/mL), transferrin (5 microg/mL), and selenious acid (5 ng/mL)] […]

Several values for one entry are separate records, joined by “and”; a condition that tells them apart may be missing. Equal entries are not always repeated.

Turning to `CC(C)CC(NC(=O)C(Cc1ccccc1)NC(=O)c1cnccn1)B(O)O` (stereo not given), the IC50 was 7.32 nM and 14.8 nM and 7.37 nM. Besides, the viability, T/C (compound 0.000949 µM) is 98.7% and 106% and 105%. The viability, T/C (compound 0.003 µM) was 96.1% and 99.1% and 101%. Moreover, the viability, T/C (compound 0.00949 µM) is 36.6% and 76.3% and 35.7%. Further, for the setting “compound 0.03 µM”, the viability, T/C was 2.1% and 7.38% and 4.57%. Further, where the note is “compound 0.0949 µM”, the viability, T/C was 1.67% and 5.37% and 2.7%. In addition, the viability, T/C (compound 0.3 µM) is 2.25% and 4.21% and 2%.

Regarding `CC1COCCN1c1cc(-c2ccnn2C)c2ccnc(-c3ccn[nH]3)c2n1` (stereo not given), the IC50 is more than 1000 nM. In addition, for the setting “compound 0.00316 µM”, the viability, T/C was 88.9% and 98.2% and 94.9%. Further, the viability, T/C (compound 0.01 µM) was 96.8% and 97.7% and 89.9%. Moreover, the viability, T/C (compound 0.0316 µM) is 87.6% and 92.7% and 96.8%. Besides, the viability, T/C (compound 0.1 µM) was 70.2% and 70.5% and 75.3%. Also, the viability, T/C (compound 0.316 µM) is 67% and 59.4% and 75.4%. For the same compound, the viability, T/C (compound 1 µM) is 65.5% and 56.8% and 61.1%.

As for `CCN(c1cc(-c2ccc(CN3CCOCC3)cc2)cc(C(=O)NCc2c(C)cc(C)[nH]c2=O)c1C)C1CCOCC1`, the IC50 is more than 3000 nM. Also, for the setting “compound 0.00949 µM”, the viability, T/C was 98.5% and 117% and 104%. Also, the viability, T/C (compound 0.03 µM) is 103% and 99.6% and 104%. Also, where the note is “compound 0.0949 µM”, the viability, T/C is 92.1% and 98.2% and 99.4%. In addition, for the setting “compound 0.3 µM”, the viability, T/C was 111% and 101% and 107%. Also, the viability, T/C (compound 0.949 µM) was 110% (2×) and 106%. For the same compound, where the note is “compound 3 µM”, the viability, T/C was 104% and 94.1% and 107%.

For `CC[C@@]1(O)C(=O)OCc2c1cc1n(c2=O)Cc2cc3c(CN(C)C)c(O)ccc3nc2-1`, the IC50 is more than 100 nM. For the same compound, the viability, T/C (compound 0.000316 µM) was 105% and 99.9% and 103%. Besides, under “compound 0.001 µM”, the viability, T/C was 110% and 104% and 107%. For the same compound, for the setting “compound 0.00316 µM”, the viability, T/C is 89.1% and 98% and 101%. Moreover, under “compound 0.01 µM”, the viability, T/C is 101% and 94% and 103%. Where the note is “compound 0.0316 µM”, the viability, T/C was 116% and 105% and 106%. Besides, the viability, T/C (compound 0.1 µM) is 108% and 101% and 104%.

For `CCc1c2c(nc3ccc(O)cc13)-c1cc3c(c(=O)n1C2)COC(=O)[C@]3(O)CC`, the IC50 was more than 300 nM. Moreover, the viability, T/C (compound 0.000949 µM) is 89.6% and 96.8% and 99.8%. Moreover, for the setting “compound 0.003 µM”, the viability, T/C was 98.3% (2×) and 108%. The viability, T/C (compound 0.00949 µM) is 96.8% and 95.2% and 99.4%. For the setting “compound 0.03 µM”, the viability, T/C was 96.7% and 109% (2×). Further, the viability, T/C (compound 0.0949 µM) was 90.5% and 101% and 110%. For the same compound, where the note is “compound 0.3 µM”, the viability, T/C is 96.5% and 83.3% and 95.6%.

Take `COc1cccc2c1C(=O)c1c(O)c3c(c(O)c1C2=O)CC(O)(C(=O)CO)CC3OC1CC(N)C(O)C(C)O1` (stereo not given): the IC50 was 792 nM and 736 nM and 1200 nM. The viability, T/C (compound 0.0316 µM) was 95.5% and 104% and 102%. The viability, T/C (compound 0.1 µM) is 97.6% and 102% and 108%. The viability, T/C (compound 0.316 µM) was 82.6% and 76.4% and 99.2%. Moreover, the viability, T/C (compound 1 µM) was 42.9% and 44.2% and 59%. Moreover, for the setting “compound 3.16 µM”, the viability, T/C was 0.87% and 1.36% and 2.64%. In addition, for the setting “compound 10 µM”, the viability, T/C was 1.12% and 5.21% and 1.87%.

`Cn1ncnc1C1c2n[nH]c(=O)c3cc(F)cc(c23)NC1c1ccc(F)cc1` (stereo not given): the half-inhibitory concentration (IC50) is more than 100 nM. Further, the viability, T/C (compound 0.000316 µM) is 120% and 100% and 104%. For the setting “compound 0.001 µM”, the viability, T/C was 104% and 99.4% and 98.5%. Also, under “compound 0.00316 µM”, the viability, T/C was 114% and 102% and 99.6%. For the same compound, where the note is “compound 0.01 µM”, the viability, T/C is 92.6% and 105% and 106%. For the same compound, for the setting “compound 0.0316 µM”, the viability, T/C is 94.1% and 106% and 103%. Also, the viability, T/C (compound 0.1 µM) is 114% and 102% and 104%.

Take `Nc1ncn(C2CC(O)C(CO)O2)c(=O)n1` (stereo not given): the IC50 was more than 1000 nM. In addition, under “compound 0.00316 µM”, the viability, T/C was 110% and 113% and 104%. The viability, T/C (compound 0.01 µM) was 96.1% and 116% and 107%. Also, for the setting “compound 0.0316 µM”, the viability, T/C is 93.2% and 102% and 110%. Further, for the setting “compound 0.1 µM”, the viability, T/C was 97.1% and 113% and 103%. In addition, the viability, T/C (compound 0.316 µM) is 105% and 124% and 93.8%. Besides, where the note is “compound 1 µM”, the viability, T/C is 116% and 104% and 105%.

On to `Nc1ncn(C2CC(O)C(CO)S2)c(=O)n1` (stereo not given), for which the IC50 is more than 300 nM. Also, where the note is “compound 0.000949 µM”, the viability, T/C is 92.7% and 99.1% and 95.1%. Moreover, the viability, T/C (compound 0.003 µM) is 107% and 97.7% and 97.9%. For the same compound, the viability, T/C (compound 0.00949 µM) is 109% (2×) and 117%. Further, the viability, T/C (compound 0.03 µM) is 109% and 104% and 105%. In addition, under “compound 0.0949 µM”, the viability, T/C is 118% and 110% and 107%. The viability, T/C (compound 0.3 µM) was 119% and 96.8% and 117%.

In the case of `O=C(C=Cn1cnc(-c2cc(C(F)(F)F)cc(C(F)(F)F)c2)n1)NNc1cnccn1`, the IC50 is 47.2 nM and 35.2 nM and 40.1 nM. Further, where the note is “compound 0.00949 µM”, the viability, T/C is 73.6% and 72.9% and 69.5%. In addition, the viability, T/C (compound 0.03 µM) was 63% and 56.7% and 62.2%. Further, the viability, T/C (compound 0.0949 µM) was 29.8% and 8.08% and 13.8%. Moreover, the viability, T/C (compound 0.3 µM) is 8.48% and 5.65% and 9.96%. Besides, where the note is “compound 0.949 µM”, the viability, T/C is 8.74% and 6.18% and 8.91%. In addition, where the note is “compound 3 µM”, the viability, T/C is 6.48% and 6.56% and 8.45%.
